pIC50: −log10 of the molar value.
Each molecule was assayed against Gamma-secretase (assay: Inhibition of Gamma-secretase).
Assay type: protein-complex assay, Homo sapiens

| SMILES | pIC50 |
| --- | --- |
| O=C(NCCc1ccccc1)OCC1CCc2ccccc2N1S(=O)(=O)c1ccc(Cl)cc1 (centres undefined) | 5.96 |
| CCN(Cc1ccnc(N)c1)C(=O)OCC1CCc2ccccc2N1S(=O)(=O)c1ccc(Cl)cc1 (centres undefined) | 6.24 |
| O=C(OCC1CCc2ccccc2N1S(=O)(=O)c1ccc(Cl)cc1)N1CCC(N2CCCCCC2)CC1 (centres undefined) | 6.59 |
| O=C(OCC1CCc2ccccc2N1S(=O)(=O)c1ccc(Cl)cc1)N1CCC(N2CCCCC2)CC1 (stereo in doubt; 26) | 7.14 |
| CCN(Cc1ccncc1)C(=O)OCC1CCc2ccccc2N1S(=O)(=O)c1ccc(Cl)cc1 (centres undefined) | 7.06 |
| O=C(OCC1CCc2ccccc2N1S(=O)(=O)c1ccc(Cl)cc1)N1CCN(C2CCCCC2)CC1 (centres undefined) | 6.27 |
| O=C(NCCO)OCC1CCc2ccccc2N1S(=O)(=O)c1ccc(Cl)cc1 (centres undefined) | 5.35 |
| O=C(OCC1CCc2c(F)ccc(F)c2N1S(=O)(=O)c1ccc(Cl)cc1)N1CCC(N2CCCCC2)CC1 (centres undefined) | 6.66 |
| O=C(OCC1CCc2c(F)cc(F)cc2N1S(=O)(=O)c1ccc(Cl)cc1)N1CCC(N2CCCCC2)CC1 (centres undefined) | 6.66 |
| O=C(OCC1CCc2ccccc2N1S(=O)(=O)c1ccc(Cl)cc1)N1CCN(CCO)CC1 (centres undefined) | 6.52 |
| O=C(NCCCN1CCCC1)OCC1CCc2ccccc2N1S(=O)(=O)c1ccc(Cl)cc1 (centres undefined) | 6.40 |
| CN(C)C1CCN(C(=O)OCC2CCc3ccccc3N2S(=O)(=O)c2ccc(Cl)cc2)CC1 (centres undefined) | 6.20 |

Next, values leading:

| pIC50 | SMILES |
| --- | --- |
| 7.25 | O=C(OCC1CCc2ccc(F)cc2N1S(=O)(=O)c1ccc(Cl)cc1)N1CCC(N2CCCCC2)CC1 (centres undefined) |
| 5.53 | O=C(NCc1ccc([N+](=O)[O-])cc1)OCC1CCc2ccccc2N1S(=O)(=O)c1ccc(Cl)cc1 (centres undefined) |
| 6.54 | O=C(OCC1CCc2ccccc2N1S(=O)(=O)c1ccc(Cl)cc1)N1CCC(N2CCCC2)CC1 (centres undefined) |
| 6.17 | NC1CCN(C(=O)OCC2CCc3ccccc3N2S(=O)(=O)c2ccc(Cl)cc2)CC1 (centres undefined) |
| 6.30 | CN1CCCC1CCNC(=O)OCC1CCc2ccccc2N1S(=O)(=O)c1ccc(Cl)cc1 (centres undefined) |
| < 6.00 | O=C(OCC1CCc2cc(F)ccc2N1S(=O)(=O)c1ccc(Cl)cc1)N1CCC(N2CCCCC2)CC1 (centres undefined) |
| 5.78 | O=C(NCc1ccncc1)OCC1CCc2ccccc2N1S(=O)(=O)c1ccc(Cl)cc1 (centres undefined) |
| 6.36 | CCCN1CCN(C(=O)OCC2CCc3ccccc3N2S(=O)(=O)c2ccc(Cl)cc2)CC1 (centres undefined) |
| 7.41 | O=C(OCC1CCc2ccccc2N1S(=O)(=O)c1ccc(Cl)cc1)N1CCC(N2CCCCC2)CC1 (single isomer, unassigned; enantiomer a) |
| < 6.00 | O=C(OCC1CCc2ccccc2N1S(=O)(=O)c1ccc(Cl)cc1)N1CCC(N2CCCCC2)CC1 (single isomer, unassigned; enantiomer b) |
| 6.76 | CCN(CCCN1CCCC1)C(=O)OCC1CCc2ccccc2N1S(=O)(=O)c1ccc(Cl)cc1 (centres undefined) |
| 6.60 | CCN(CCC1CCCN1C)C(=O)OCC1CCc2ccccc2N1S(=O)(=O)c1ccc(Cl)cc1 (centres undefined) |

Reference: ChEMBL document CHEMBL1138382, “Tetrahydroquinoline sulfonamides as gamma-secretase inhibitors” (Bioorg Med Chem Lett, 2007)
